Reference: paper PMC2941991 (ACS chemical biology, 2009)

Biological target: T1, T877A full-length androgen receptor mutant (Homo sapiens, UniProt P10275, T878A)
T1 sequence (P10275 1-920 T878A): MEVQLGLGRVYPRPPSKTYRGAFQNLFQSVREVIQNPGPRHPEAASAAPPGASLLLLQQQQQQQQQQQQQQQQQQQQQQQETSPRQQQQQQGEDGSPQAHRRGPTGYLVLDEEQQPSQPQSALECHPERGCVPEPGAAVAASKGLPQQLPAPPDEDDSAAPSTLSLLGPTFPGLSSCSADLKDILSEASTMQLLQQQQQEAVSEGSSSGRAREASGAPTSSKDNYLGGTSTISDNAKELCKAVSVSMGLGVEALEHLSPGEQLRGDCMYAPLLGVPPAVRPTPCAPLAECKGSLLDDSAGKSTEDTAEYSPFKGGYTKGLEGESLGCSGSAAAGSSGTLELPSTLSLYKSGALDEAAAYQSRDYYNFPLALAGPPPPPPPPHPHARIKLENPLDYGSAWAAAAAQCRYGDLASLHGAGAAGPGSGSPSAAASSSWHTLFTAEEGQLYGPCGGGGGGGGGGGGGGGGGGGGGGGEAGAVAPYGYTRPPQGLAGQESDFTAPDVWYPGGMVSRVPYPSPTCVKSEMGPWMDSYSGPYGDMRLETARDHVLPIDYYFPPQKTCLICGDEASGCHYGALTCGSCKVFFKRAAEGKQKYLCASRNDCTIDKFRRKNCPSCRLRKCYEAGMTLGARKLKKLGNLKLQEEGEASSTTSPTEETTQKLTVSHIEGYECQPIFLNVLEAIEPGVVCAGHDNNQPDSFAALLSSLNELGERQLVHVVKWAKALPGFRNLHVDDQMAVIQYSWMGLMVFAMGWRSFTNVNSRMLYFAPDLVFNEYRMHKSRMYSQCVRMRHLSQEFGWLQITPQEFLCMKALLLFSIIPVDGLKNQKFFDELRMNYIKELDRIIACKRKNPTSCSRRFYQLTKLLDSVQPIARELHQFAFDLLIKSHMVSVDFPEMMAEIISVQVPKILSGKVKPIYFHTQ
Assay: Luciferase reporter gene assay, full-length AR with the LNCaP mutation
Type: cell-based

## CC(C)(O)C(=O)Nc1ccc([N+](=O)[O-])c(C(F)(F)F)c1 [OH-Flu, 2-hydroxyflutamide]
  Agonist or antagonist action on the AR T877A mutant: act as agonists
